From patent US5369112A, “Method of treating cataracts caused by active oxygen” (Mitsubishi Gas Chemical Company, Inc., priority 1991, dated 1994)
pIC50: −log10 of the molar value. Read-outs that look alike come from different tables or passages of the source.

What was measured:
male mice SPF-ICR [1] = test: Acute toxicity test (1), intraperitoneal; conditions: mouse, in vivo
Protocol: To male mice SPF-ICR five weeks old (supplied by Japan Charles River Co.) were intraperitoneally administered PQQ·2Na, PQQ trimethyl ester, PQQ triallyl ester, OPQ, 1-methylpropyl OPQ, 2-methylthioethyl OPQ and benzyl OPQ at dosages of 40, 80, 160 and 200 mg per kg of body weight of mouce, respectively and they were bred for 14 days at 25° C. One group consisted of 8 mice. For administration, PQQ·2Na and OPQ and esters thereof were dissolved in physiological saline and PQQ trimethyl ester and PQQ triallyl ester were suspended in 1% Tween 80-containing physiological saline, respectively.

[2] = Acute Toxicity Test (2), intraperitoneal; format: in vivo; conditions: mouse, in vivo, ip
Protocol: (§1) To male mice SPF-ICR five weeks old (supplied by Japan Charles River Co.) were intraperitoneally administered PQQ triallyl ester at dosages of 40, 80, 160, 200, 400 and 800 mg per kg of body weight of mouse, respectively and they were bred for 14 days at 25° C. One group consisted of 8 mice. For administration, PQQ triallyl ester was suspended in 1% Tween 80-containing physiological saline.

male mice SPF-ICR [3] = test: Acute Toxicity Test (2), intraperitoneal; format: in vivo; conditions: 8 mice per group, 14 days
Protocol: as §1

mice [4] = conditions: mouse, in vivo, ip
Protocol: One group consisted of 8 mice. For administration, PQQ·2Na and OPQ and esters thereof were dissolved in physiological saline and PQQ trimethyl ester and PQQ triallyl ester were suspended in 1% Tween 80-containing physiological saline, respectively.
PQQ·2Na, PQQ trimethyl ester, PQQ triallyl ester and OPQ and esters thereof were intraperitoneally administered to mice and they were bred in the same manner as in the above acute toxicity test. Urine of the mice was taken every day and glucose concentration was measured using clinical examination reagent (trademark: […] 2 manufactured by Miles.Sankyo Co.).

mice [5] = test: Kidney Toxicity Determined by Blood Examination (1); format: in vivo; conditions: for Creatinine / Glucose / Urea nitrogen: mouse serum
Protocol: (§2) After lapse of one day from the administration, the mice were fasted (with feeding only water) and then after 18 hours, blood was collected and serum was obtained therefrom. Glucose, urea nitrogen and creatinine in the serum were examined by clinical examination reagent (trademark: FUJI DRYCHEMSLIDE manufactured by Fuji Photo Film Co., Ltd.).

[6] = Superoxide scavenging activity (hypoxanthine-xanthine oxidase, DMPO spin trapping, ESR); format: biochemical; conditions: pH 7.3, read-out: O2^- scavenging activity IC50
Text: Activity of PQQ esters to scavenge superoxide (O2^-) produced in the system of hypoxanthinexanthine oxidase was examined by spin trapping method [using 5,5-dimethyl-l-pyrroline-N-oxide (hereinafter referred to as "DMPO") as a spin trapping agent] where electron spin resonance (hereinafter referred to as "ESR") was used.
Hypoxanthine+2O2 →2O2^- +uric acid (xanthine oxidase)
The following reagents were successively put in a test tube and stirred after addition of the hypoxanthine 7 to initiate the reaction and the reaction mixture was transferred to a quartz cell used for measurement of ESR.
Superoxide scavenging activity of OPQ and esters thereof was examined in the same manner as in Example 1.

[7] = Hydroxy radical scavenging activity (H2O2-(Fe^2+-DTPA), DMPO spin trapping, ESR); format: biochemical; conditions: pH 7.3, read-out: .OH scavenging activity IC50
Text: Activity of PQQ esters to scavenge hydroxy radical (·OH) produced in the system of H2 O2 --(Fe^2+ -DTPA) was examined by spin trapping method [using 5,5-dimethyl-1-pyrroline-N-oxide (hereinafter referred to as "DMPO") as a spin trapping agent] where electron spin resonance (hereinafter referred to as "ESR") was used. DTPA means diethylenetriamine-pentaacetic acid.
H2 O2 +Fe^2 -DTPA complex→·OH+OH^-
The following reagents were successively put in a test tube and stirred after addition of H2 O2 6 to initiate the reaction and the reaction mixture was transferred to a quartz cell used for measurement of ESR.
Hydroxy radical scavenging activity of OPQ and esters thereof was examined in the same manner as in Example 3.

[8] = system: Hydrocortisone-Induced Cataract of Hen's Eggs; test: Effect on hydrocortisone-induced cataract of hen's eggs; format: in vivo, white leghorn (hen's eggs); conditions: 1 μmole at 3, 10 and 20 h after hydrocortisone; lens at 48 h
Protocol: Fertilized eggs of white leghorn were incubated in an incubator at a temperature of 37° C. and 70% in humidity. The day on which the incubation was started was taken to be one day old. […] eggs of 15 day old were prepared and divided into 7 groups, each of which included 5 eggs (A-G). A small hole was bored through the eggshell above air chamber of the eggs of groups B-G and 0.25 μmole (as 0.2 ml solution) of hydrocortisone sodium succinate was administered into the air chamber through the hole and then, the hole was sealed with a cellophane tape. To The eggs of groups C-G was administered 1 μmole of following compounds after 3, 10 and 20 hours from administration of hydrocortisone sodium succinate. That is, 0.2 ml of a solution of PQQ·2Na in distilled water was administered to the eggs of group C, 0.2 ml of a suspension of PQQ trimethyl ester in 1% Tween 80 solution was administered to the eggs of group D, 0.2 ml of a suspension of triallyl ester in 1% Tween 80 solution was administered to the eggs of group E, 0.2 ml of a solution of OPQ in 10 mM NaCO3 solution was administered to the eggs of group F, and 0.2 ml of a solution of methyl OPQ in 10 mM NaCO3 solution was administered to the eggs of group G.
Crystal lens was taken out after 48 hours from administration of hydrocortisone sodium succinate and degree of cataract was judged by the criteria according to the Nishigori et al method (Nishigori et al, "Investigative Ophthalmology & Visual Science", Vol. 25, page 1051, 1984).
5 The whole nucleus was hazed in white.

[9] = bovine, not told, 960 min
Protocol: Permeability of various compounds through capsule of crystal bovine lens was examined in accordance with the method mentioned in "Crystal Lens and Biochemical Mechanism thereof" (pages 436-440) edited by Shuzo Iwata (Medical Aoi Publisher). Each compound dissolved in 10 mM HEPES buffer (containing 1% DMSO in the case of PQQ triesters) was put in an apparatus for measurement of membrane permeation constant and left to stand for 16 hours at 35° C. and then amount of the compound which migrated was measured by ultraviolet absorption (243 nm for PQQ·2Na and 255 nm for PQQ esters) to obtain membrane permeation constant.

male mice SPF-ICR [10] = test: Acute Toxicity Test (3), intraperitoneal; format: in vivo; conditions: for mice died: 8 mice per group, 14 days
Text: One group consisted of 8 mice.

male mice SPF-ICR [11] = test: Acute Toxicity Test (4), oral; format: in vivo; conditions: oral 1.0, 1.5 and 2.0 g/kg, 8 mice per group, 14 days
Protocol: To male mice SPF-ICR five weeks old (supplied by Japan Charles River Co.) was orally administered OPQ at dosages of 1.0, 1.5 and 2.0 g per kg of body weight of mouse, respectively and they were bred for 14 days at 25° C. One group consisted of 8 mice. No mice died.

mice [12] = test: Kidney Toxicity Determined by Blood Examination (3); format: in vivo; conditions: mouse serum
Protocol: as §2, with “Thereafter,” for “After lapse of one day from the administration,”

Compound: C=CCOC(=O)c1cc(C(=O)OCC=C)c2c(n1)C(=O)C(=O)c1cc(C(=O)OCC=C)[nH]c1-2 [PQQ triallyl ester]
- mice died (male mice SPF-ICR [1]): no mice died
- LD50 at 336 h [2]: ~500 mg/kg
- mice died (male mice SPF-ICR [3]; i.p. 200 mg/kg or less): No mice died
- mice died (male mice SPF-ICR [3]; i.p. 400 mg/kg): three mice died
- mice died (male mice SPF-ICR [3]; i.p. 800 mg/kg): eight mice all died
- glucose in urine (mice [4]; 20 mg/kg): -
- glucose in urine (mice [4]; 40 mg/kg): -
- glucose in urine (mice [4]; 80 mg/kg): -
- glucose in urine (mice [4]; 160 mg/kg): -
- glucose in urine (mice [4]; 200 mg/kg): -
- glucose in urine (mice [4]; 400 mg/kg): -
- glucose in urine (mice [4]; 1000 mg/kg): -
- contents of glucose, urea nitrogen and creatinine in serum (mice [5]; mice, summary of Table 3): nearly the same as those in the case of administration of no compounds
- Creatinine (mice [5]; 40 mg/kg): 0.3 ± 0.1 mg/dL
- Glucose (mice [5]; 40 mg/kg): 42 ± 6 mg/dL
- Urea nitrogen (mice [5]; 40 mg/kg): 11 ± 4 mg/dL
- Creatinine (mice [5]; 90 mg/kg): 0.2 ± 0.1 mg/dL
- Glucose (mice [5]; 90 mg/kg): 47 ± 15 mg/dL
- Urea nitrogen (mice [5]; 90 mg/kg): 12 ± 3 mg/dL
- Creatinine (mice [5]; 160 mg/kg): 0.1 ± 0.1 mg/dL
- Glucose (mice [5]; 160 mg/kg): 59 ± 16 mg/dL
- Urea nitrogen (mice [5]; 160 mg/kg): 10 ± 1 mg/dL
- Creatinine (mice [5]; 200 mg/kg): 0.1 ± 0.1 mg/dL
- Glucose (mice [5]; 200 mg/kg): 76 ± 6 mg/dL
- Urea nitrogen (mice [5]; 200 mg/kg): 9 ± 1 mg/dL
- kidney toxicity (mice [5]; mouse, in vivo): kidney toxicity was not seen
- pIC50 ([6]; Example 1, Table 6): 7.91
- pIC50 ([7]; Example 3, Table 8): 4.38
- Judgement 1 (No haze was seen in crystal lens), eggs [8]: 2/5
- Judgement 2 (Slight opaque ring was seen in crystal lens), eggs [8]: 1/5
- Judgement 3 (Clear ring of white haze was seen in crystal lens), eggs [8]: 1/5
- Judgement 4 ~ 5 (white haze of pinhole size in nucleus ~ whole nucleus hazed in white), eggs [8]: 1/5
- Membrane permeation constant [9]: 2.42 ± 0.60 10 ^-7 cm^2 · sec^-1

Compound: O=C(O)c1cc(C(=O)O)c2c(n1)c1ncoc1c1cc(C(=O)O)[nH]c12 [OPQ, 2,8,10-tricarboxy-1-H-oxazo[5,4-h]-pyrrolo[2,3-f]quinoline]
- mice died (male mice SPF-ICR [1]): no mice died
- mice died (male mice SPF-ICR [10]; i.p. 0.1-0.4 g/kg): No mice died
- mice died (male mice SPF-ICR [10]; i.p. 0.8 g/kg): two mice died
- mice died (male mice SPF-ICR [10]; i.p. 1.0 g/kg): three mice died
- mice died (male mice SPF-ICR [10]; i.p. 1.2 g/kg): six mice died
- LD50 (male mice SPF-ICR [10]; mouse, in vivo, ip, 336 h): about 1.0 g/kg-mouse
- mice died (male mice SPF-ICR [11]): No mice died
- glucose in urine (mice [4]; 20 mg/kg): -
- glucose in urine (mice [4]; 40 mg/kg): -
- glucose in urine (mice [4]; 80 mg/kg): -
- glucose in urine (mice [4]; 160 mg/kg): -
- glucose in urine (mice [4]; 200 mg/kg): -
- glucose in urine (mice [4]; 400 mg/kg): -
- glucose in urine (mice [4]; 800 mg/kg): -
- glucose in urine (mice [4]; 1000 mg/kg): -
- glucose in urine (mice [4]; 1200 mg/kg): -
- Creatinine (mice [5]; 40 mg/kg): 0.70 ± 0.10 mg/dL
- Glucose (mice [5]; 40 mg/kg): 90 ± 18 mg/dL
- Urea nitrogen (mice [5]; 40 mg/kg): 25 ± 3 mg/dL
- Creatinine (mice [5]; 80 mg/kg): 0.80 ± 0.10 mg/dL
- Glucose (mice [5]; 80 mg/kg): 86 ± 10 mg/dL
- Urea nitrogen (mice [5]; 80 mg/kg): 23 ± 4 mg/dL
- Creatinine (mice [5]; 160 mg/kg): 0.73 ± 0.09 mg/dL
- Glucose (mice [5]; 160 mg/kg): 90 ± 23 mg/dL
- Urea nitrogen (mice [5]; 160 mg/kg): 27 ± 6 mg/dL
- Creatinine (mice [5]; 200 mg/kg): 0.81 ± 0.08 mg/dL
- Glucose (mice [5]; 200 mg/kg): 85 ± 24 mg/dL
- Urea nitrogen (mice [5]; 200 mg/kg): 28 ± 4 mg/dL
- Creatinine (mice [12]; i.p. 150 mg/kg): 0.75 ± 0.05 mg/dL
- Glucose (mice [12]; i.p. 150 mg/kg): 106 ± 21 mg/dL
- Urea nitrogen (mice [12]; i.p. 150 mg/kg): 32 ± 3 mg/dL
- Creatinine (mice [12]; i.p. 300 mg/kg): 0.78 ± 0.04 mg/dL
- Glucose (mice [12]; i.p. 300 mg/kg): 80 ± 15 mg/dL
- Urea nitrogen (mice [12]; i.p. 300 mg/kg): 29 ± 2 mg/dL
- Creatinine (mice [12]; i.p. 400 mg/kg): 0.78 ± 0.04 mg/dL
- Glucose (mice [12]; i.p. 400 mg/kg): 104 ± 18 mg/dL
- Urea nitrogen (mice [12]; i.p. 400 mg/kg): 29 ± 3 mg/dL
- Creatinine (mice [12]; i.p. 600 mg/kg): 0.78 ± 0.11 mg/dL
- Glucose (mice [12]; i.p. 600 mg/kg): 74 ± 11 mg/dL
- Urea nitrogen (mice [12]; i.p. 600 mg/kg): 32 ± 5 mg/dL
- pIC50 ([6]; Example 2, Table 7): 5.91
- pIC50 ([7]; Example 4, Table 9): 3.70
- Judgement 2 (Slight opaque ring was seen in crystal lens), eggs [8]: 1/5
- Judgement 3 (Clear ring of white haze was seen in crystal lens), eggs [8]: 1/5
- Judgement 4 ~ 5 (white haze of pinhole size in nucleus ~ whole nucleus hazed in white), eggs [8]: 3/5
